# Assay results taken from PubChem BioAssay (NCI).
#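 Assay format: 96-well plates, 48-hour exposure. TGI marks complete inhibition of growth.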 Where a SMILES comes first, the peptide text is derived from it. [ ]: non-standard residue; d: D form. The star is where a group is joined. ξ: configuration not given here. ξW = NC(Cc1c[nH]c2ccccc12)C(=O)O; X30 = O=C(O)[C@H]1CCC[C@H]1N*; ξF = NC(Cc1ccccc1)C(=O)O; Boc = CC(C)(C)OC(=O)*; ξK = NCCCCC(N)C(=O)O; ξT = CC(O)C(N)C(=O)O; tBu = CC(C)(C)*
# What was measured:
# Assay in all cases: NCI tumour cell line growth inhibition, 48 h
# SNB-19 CNS = test system: SNB-19 CNS
# SK-OV-3 ovarian = test system: SK-OV-3 ovarian
# IGROV1 ovarian = test system: IGROV1 ovarian
# NCI-H226 lung = test system: NCI-H226 lung
# LOX IMVI melanoma = test system: LOX IMVI melanoma
# MDA-N = test system: MDA-N
# HOP-62 NSCLC = test system: HOP-62 NSCLC
# SK-MEL-2 melanoma = test system: SK-MEL-2 melanoma
# HCT-15 colon = test system: HCT-15 colon
# MDA-MB-231 breast = test system: MDA-MB-231 breast
# OVCAR-3 ovarian = test system: OVCAR-3 ovarian
# ACHN renal = test system: ACHN renal
# SK-MEL-28 melanoma = test system: SK-MEL-28 melanoma
# A498 renal = test system: A498 renal
SMILES,TGI (SNB-19 CNS),TGI (SK-OV-3 ovarian),TGI (IGROV1 ovarian),TGI (NCI-H226 lung),TGI (LOX IMVI melanoma),TGI (MDA-N),TGI (HOP-62 NSCLC),TGI (SK-MEL-2 melanoma),TGI (HCT-15 colon),TGI (MDA-MB-231 breast),TGI (OVCAR-3 ovarian),TGI (ACHN renal),TGI (SK-MEL-28 melanoma),TGI (A498 renal)
O=C1C(Cl)C(c2cccc(Br)c2)N1c1c(O)c(Cl)cc(Br)c1Cl (stereo not drawn),11.5 µM,55.8 µM,10.7 µM,51.8 µM,28.5 µM,53.3 µM,32.4 µM,25 µM,19.3 µM,46 µM,36.1 µM,37.6 µM,,
Cc1cc(S(=O)(=O)Nc2nc(N)nc(N(C)C)n2)c(SC(C(=O)O)c2ccccc2)cc1Cl (stereo not drawn),> 10 µM,> 10 µM,> 10 µM,> 10 µM,> 10 µM,> 10 µM,> 10 µM,> 10 µM,> 10 µM,,> 10 µM,> 10 µM,> 10 µM,> 10 µM
COC(=O)c1cn(CCCCO)nn1,> 100 µM,,> 100 µM,> 100 µM,> 100 µM,> 100 µM,> 100 µM,> 100 µM,> 100 µM,> 100 µM,,> 100 µM,> 100 µM,
NC(N)=NCCCC(NCc1c2ccccc2[n+]([O-])c2ccccc12)C(=O)O (stereo not drawn),> 100 µM,> 100 µM,> 100 µM,> 100 µM,> 100 µM,,> 100 µM,> 100 µM,> 100 µM,,> 100 µM,> 100 µM,> 100 µM,> 100 µM
COc1cc(O)c2c(c1O)C(=O)c1cc(C)ncc1C2=O,> 50 µM,35.7 µM,> 50 µM,> 50 µM,45.2 µM,,> 50 µM,> 50 µM,> 50 µM,,45.9 µM,> 50 µM,> 50 µM,> 50 µM
COc1cc(/C=C2/C(=O)N=C(NC(C)=O)N2C)ccc1OC(C)=O,> 100 µM,> 100 µM,> 100 µM,> 100 µM,> 100 µM,> 100 µM,> 100 µM,> 100 µM,> 100 µM,> 100 µM,> 100 µM,> 100 µM,> 100 µM,
O=C1CCCCCCCCCCC1CN(Cc1ccccc1)Cc1ccccc1 (stereo not drawn),> 100 µM,> 100 µM,> 100 µM,> 100 µM,69.4 µM,> 100 µM,> 100 µM,,> 100 µM,> 100 µM,> 100 µM,> 100 µM,> 100 µM,
ClCCCC1COc2ccccc2O1 (stereo not drawn),> 100 µM,> 100 µM,> 100 µM,> 100 µM,,> 100 µM,> 100 µM,,> 100 µM,,> 100 µM,> 100 µM,> 100 µM,
CC(C(=O)N1C(=O)N(C(=O)[C@H](C)C(O)c2ccccc2)[C@H](c2ccccc2)[C@H]1c1ccccc1)[C@@H](O)c1ccccc1 (stereo partly drawn),> 100 µM,> 100 µM,64.9 µM,> 100 µM,,60.7 µM,> 100 µM,42.6 µM,> 100 µM,48.9 µM,,> 100 µM,> 100 µM,> 100 µM
O=C(/C=C/c1cccs1)c1ccc(Cl)s1,47.6 µM,> 100 µM,> 10 µM,85.1 µM,,> 10 µM,> 100 µM,> 100 µM,35.2 µM,> 100 µM,,> 100 µM,59.3 µM,> 100 µM
CC1=C2c3ccccc3N(S(=O)(=O)c3ccccc3)[C@H]2[C@H](C(=O)N2C3CC4CC[C@@]3(CS2(=O)=O)C4(C)C)CC1 (stereo partly drawn),> 100 µM,> 100 µM,> 100 µM,> 100 µM,> 100 µM,,> 100 µM,,> 100 µM,> 100 µM,> 100 µM,> 100 µM,> 100 µM,> 100 µM
Clc1ccc2c(Cl)nc(-c3ccccc3)nc2c1,> 100 µM,62.3 µM,> 100 µM,55.9 µM,,,> 100 µM,95 µM,,,50.1 µM,> 100 µM,> 100 µM,> 100 µM
CCN(CC)CCNc1ccc2ncn3c4c(OC)ccc(=O)c4c(O)c1c23,> 100 µM,> 100 µM,> 43.8 µM,> 100 µM,,> 100 µM,> 100 µM,> 100 µM,> 100 µM,> 100 µM,> 100 µM,> 100 µM,27.1 µM,
O=C1c2cscc2C(=O)c2c(OCc3ccccc3)ccc(OCc3ccccc3)c21,> 100 µM,> 100 µM,> 100 µM,> 100 µM,> 100 µM,> 100 µM,> 100 µM,,,> 100 µM,> 100 µM,> 100 µM,> 100 µM,
O=C(Nn1c(-c2ccccc2)nc2ccccc2c1=O)c1ccc(O)cc1,> 100 µM,> 100 µM,> 100 µM,> 100 µM,,> 100 µM,> 100 µM,,> 100 µM,> 100 µM,> 100 µM,> 100 µM,> 100 µM,> 100 µM
O=C(Nc1ccc(N2C(=O)CSC2c2cccs2)cc1)c1ccc(N2C(=O)CSC2c2cccs2)cc1 (stereo not drawn),> 100 µM,> 100 µM,> 100 µM,,> 100 µM,> 100 µM,> 100 µM,> 100 µM,> 100 µM,> 100 µM,> 100 µM,> 100 µM,> 100 µM,
Cc1cn(CCCCOC(=O)NC(CCCNC(N)=O)C(=O)O)c(=O)[nH]c1=O (stereo not drawn),> 100 µM,> 100 µM,> 100 µM,> 100 µM,> 100 µM,> 100 µM,> 100 µM,> 100 µM,> 100 µM,> 100 µM,> 100 µM,> 100 µM,> 100 µM,
CC(OC(C)(C)C)C(NC(=O)C(CCCCNC(=O)OC(C)(C)C)NC(=O)C(Cc1c[nH]c2ccccc12)NC(=O)C(N)Cc1ccccc1)C(=O)NC(Cc1ccccc1)C(=O)N[C@@H]1CCC[C@@H]1C(=O)O (stereo partly drawn) (H-[ξF][ξW][ξK](Boc)[ξT](tBu)[ξF]-X30),51.2 µM,> 100 µM,> 100 µM,52.4 µM,60 µM,> 100 µM,> 100 µM,41.5 µM,,> 100 µM,> 100 µM,> 100 µM,> 100 µM,
